# Structures can show the parent of a compound that is named as a salt.
# Experiments:
# Assay type in all cases: in vivo
# [1] = Body weight of mice during experiments (high energy feed + STZ diabetic model); conditions: Sample 10 mg/kg i.p., Positive control 22.5 mg/kg intragastric, 1 time/day
# From the text: 3.2.1 C57BL/6 mice are more commonly used in diabetes tests. 90 C57BL/6 male mice (SPF level) with a body weight of 18.8-24.2 g at the beginning of the experiment were purchased from Guangdong Medical Laboratory Animal Center (Experimental Animal Production License No. SCXK (Yue) 2018-0002; Animal Certificate No. 44007200059759);
# (§1) After each group was given a maintenance feed for 1 week, except for the negative control group, the other groups were replaced with the high energy feed from 3.1.7.1. After 3 weeks of feeding, each group was fasted for 24 h. Except for the negative control group, the other groups were intraperitoneally injected with 5 mg/mL STZ solution at a dose of 20 mL/kg bodyweight. All groups were fed for 4 days. Fasting blood glucose and glucose tolerance were measured on the 5th day, and the test was terminated the next day.
# (§2) From the feeding of the maintenance feed, the sample group was intraperitoneally injected with the test sample solution once per day at 20 mL/kg bodyweight, the negative control group and the model control group were intraperitoneally injected with sodium chloride solution, and the positive control group was intragastrically administered with pioglitazone hydrochloride solution at a dose of 20 mL/kg bodyweight for 34 days until the end of the test. On the day of injection of STZ, each group was administered 4 h after STZ injection.
# Weighed at the beginning of the trial, at the end of the trial, and once a week during the trial.
# [2] = tested on: C57BL/6 male mice, high energy feed + STZ diabetic model; assay: Fasting blood glucose index
# Method: as §1, §2
# On the 5th day after intraperitoneal injection of STZ, the mice in each group were fasted for about 5 hours with water provided. After measuring the fasting blood glucose level (0 h), the sample group and positive control group were intraperitoneally injected with the corresponding drugs. The negative control group and the model control group were intraperitoneally injected with sodium chloride solution. After 20 minutes, each group was intragastrically administered with 0.125 g/mL glucose solution at 20 mL/kg bodyweight, and the blood glucose level was measured at 0.5, 1, 1.5, 2 h after the administration of the glucose solution. On the next day, the mice in each group were fasted for 5 h after the administration. The mice were anesthetized with 3% sodium pentobarbital solution in an amount of 10 mL/kg bodyweight, and sacrificed after collecting the eyeballs and bloods. The blood samples were centrifuged at 3000 r/min for 10 min, and the sera were collected for the detection of serum insulin, triglycerides, and total cholesterol. […]
# [3] = tested on: C57BL/6 male mice, high energy feed + STZ diabetic model; assay: Glucose tolerance index; conditions: Sample 10 mg/kg, Positive control 22.5 mg/kg
# Method: as §1, §2
# On the 5th day after intraperitoneal injection of STZ, the mice in each group were fasted for about 5 hours with water provided. After measuring the fasting blood glucose level (0 h), the sample group and positive control group were intraperitoneally injected with the corresponding drugs. The negative control group and the model control group were intraperitoneally injected with sodium chloride solution. After 20 minutes, each group was intragastrically administered with 0.125 g/mL glucose solution at 20 mL/kg bodyweight, and the blood glucose level was measured at 0.5, 1, 1.5, 2 h after the administration of the glucose solution. On the next day, the mice in each group were fasted for 5 h after the administration. The mice were anesthetized with 3% sodium pentobarbital solution in an amount of 10 mL/kg bodyweight, and sacrificed after collecting the eyeballs and bloods. The blood samples were centrifuged at 3000 r/min for 10 min, and the sera were collected for the detection of serum insulin, triglycerides, and total cholesterol. At the same time, the pancreas of each animal was collected. Six animals in each group were fixed with 10% paraformaldehyde for HE staining and insulin immunohistochemical staining in pancreas. The remaining 6 animals were preserved at −80° C. for insulin content determination.
# Calculate the area under the blood glucose curve at 0, 0.5, 1, 1.5, 2 h after glucose administration. The formula is as follows:
# Area under the blood glucose curve: [(0 h blood glucose+0.5 h blood glucose)×0.5]/2+[(0.5 h blood glucose+1 h blood glucose)×0.5]/2+[(1 h blood glucose+1.5 h) Blood glucose level)×0.5]/2+[(1.5 h blood glucose level+2 h blood glucose value)×0.5]/2.
# [4] = tested on: C57BL/6 male mice, high energy feed + STZ diabetic model; assay: Serum cholesterol (TC) and triglyceride (TG) content; conditions: serum at end of experiment; Sample 10 mg/kg, Positive control 22.5 mg/kg
# Method: as §1, with “day. […]” for “day.”
# (§3) On the 5th day after intraperitoneal injection of STZ, the mice in each group were fasted for about 5 hours with water provided. […] After 20 minutes, each group was intragastrically administered with 0.125 g/mL glucose solution at 20 mL/kg bodyweight, and the blood glucose level was measured at 0.5, 1, 1.5, 2 h after the administration of the glucose solution. […]
# (§4) At the end of the experiment, serum was collected for assaying serum insulin, triglycerides, and total cholesterol. The insulin resistance index was calculated.
# [5] = tested on: C57BL/6 male mice, high energy feed + STZ diabetic model; assay: Serum insulin content; conditions: end of experiment; Sample 10 mg/kg, Positive control 22.5 mg/kg
# Method: as §1, with “day. […]” for “day.”
# as §3, §4
# [6] = tested on: C57BL/6 male mice, high energy feed + STZ diabetic model; assay: Pancreatic insulin content (ELISA); conditions: end of experiment, Sample 10 mg/kg, Positive control 22.5 mg/kg
# Method: as §1
# as §2, with “On the day of injection of STZ, each group was administered 4 h after STZ injection.” left out
# as §3
structure (smiles),measurement,setting,value
"CCc1ccc(CCOc2ccc(CC3SC(=O)NC3=O)cc2)nc1 (stereo not shown) [Positive control, Pioglitazone hydrochloride]",Bodyweight,[1]; d 2,22.2 ± 1.2 g
same,Bodyweight,[1]; d 9,23.0 ± 1.3 g
same,Bodyweight,[1]; d 16,24.2 ± 1.2 g
same,Bodyweight,[1]; d 23,25.6 ± 1.5 g
same,Bodyweight,[1]; d 29,26.2 ± 1.6 g
same,Bodyweight,[1]; d 32,26.0 ± 1.4 g
same,Bodyweight,[1]; d 35,25.8 ± 1.3 g
same,"Fasting blood glucose index, Post experiment","[2]; 5th day after STZ, fasting about 5 h, Sample 10 mg/kg i.p., Positive control 22.5 mg/kg intragastric, 1 time/day",13.8 ± 2.8 mmol/L
same,Decrease percentage of blood glucose,"[2]; (prior − post)/prior × 100%, Sample 10 mg/kg i.p., Positive control 22.5 mg/kg intragastric",−21.8 ± 39.0%
same,"Fasting blood glucose index, Prior to Experiment","[2]; prior to experiment (baseline), fasting about 5 h",12.0 ± 2.6 mmol/L
same,"Glucose tolerance index, blood glucose","[3]; 0 h, 5th day after STZ",13.8 ± 2.8 mmol/L
same,"Glucose tolerance index, blood glucose",[3]; 0.5 h after glucose administration,30.1 ± 5.4 mmol/L
same,"Glucose tolerance index, blood glucose",[3]; 1 h after glucose administration,26.9 ± 7.0 mmol/L
same,"Glucose tolerance index, blood glucose",[3]; 1.5 h after glucose administration,20.7 ± 6.2 mmol/L
same,"Glucose tolerance index, blood glucose",[3]; 2 h after glucose administration,17.9 ± 6.3 mmol/L
same,TC,[4],4.76 ± 0.56 mmol/L
same,TG,[4],0.76 ± 0.14 mmol/L
same,serum insulin content,[5],28.2 ± 3.6 mIU/mL
same,pancreatic insulin content,[6],8.4 ± 3.0 mIU/mL

# Reference: US12310985B2, “Composition and method for treatment of diabetes” (SHENZHEN PROFOUND VIEW PHARMACEUTICAL TECHNOLOGY, priority 2020, dated 2025)
